Data published in ChEMBL document CHEMBL6109072, “Discovery of highly potent dual GSPT1/BRD4 degraders with anti-AML activity” (Eur J Med Chem, 2025).
Activity calls are given as the source filed them. No cut-off for these calls is given here.

Columns and labels:
MOLM-13 [1] = assay: Antiproliferative activity against human MOLM-13 cells incubated for 3 days by CCK8 assay; type: functional, cell-based; conditions: for IC50: MOLM-13, 72 h
OCI-AML-3 = assay: Antiproliferative activity against human OCI-AML-3 cells incubated for 3 days by CCK8 assay; type: functional, cell-based
Raji = assay: Antiproliferative activity against human Raji cells incubated for 3 days by CCK8 assay; type: functional, cell-based; conditions: 72 h
KARPAS-299 = assay: Antiproliferative activity against human KARPAS-299 cells incubated for 3 days by CCK8 assay; type: functional, cell-based
[2] = molecular target: T1, Protein cereblon/Bromodomain-containing protein 4 (Homo sapiens, UniProt O60885+Q96SW2); assay: PROTAC activity at CRBN/BRD4 in human MOLM-13 cells assessed as BRD4 degradation at 1 uM incubated for 24 hrs by Western blot analysis; type: cell-based
T1 sequence (Q96SW2 whole entry, looked up, other chains not shown): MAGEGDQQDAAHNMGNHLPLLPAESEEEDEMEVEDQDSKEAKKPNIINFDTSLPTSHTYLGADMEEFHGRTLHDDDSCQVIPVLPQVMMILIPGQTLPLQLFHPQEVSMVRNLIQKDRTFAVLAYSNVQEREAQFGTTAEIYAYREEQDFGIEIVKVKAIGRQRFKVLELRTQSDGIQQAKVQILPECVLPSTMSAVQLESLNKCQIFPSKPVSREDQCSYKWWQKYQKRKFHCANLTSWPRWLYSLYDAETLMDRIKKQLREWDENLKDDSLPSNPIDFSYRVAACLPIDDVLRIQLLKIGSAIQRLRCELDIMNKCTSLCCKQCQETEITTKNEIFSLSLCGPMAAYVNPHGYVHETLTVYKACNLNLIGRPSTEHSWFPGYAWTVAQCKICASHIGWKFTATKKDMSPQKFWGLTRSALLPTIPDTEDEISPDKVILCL

MOLM-13 [3] = assay: Antiproliferative activity against human MOLM-13 cells assessed as cell viability at 0.1 uM incubated for 3 days by CCK8 assay relative to control; type: functional; conditions: MOLM-13, 72 h, time 3 day, read-out: Activity
[4] = molecular target: T2, Protein cereblon/Eukaryotic peptide chain release factor GTP-binding subunit ERF3A (Mus musculus) (UniProt Q8C7D2+Q8R050); assay: PROTAC activity at CRBN/GSPT1 in mouse A9 cells assessed as fold increase in translational readthrough activity at 0.8 to 20 uM incubated for 48 hrs by Western blot analysis relative to control; type: cell-based; conditions: dose 0.8-20 µM
T2 sequence (Q8C7D2 whole entry, looked up): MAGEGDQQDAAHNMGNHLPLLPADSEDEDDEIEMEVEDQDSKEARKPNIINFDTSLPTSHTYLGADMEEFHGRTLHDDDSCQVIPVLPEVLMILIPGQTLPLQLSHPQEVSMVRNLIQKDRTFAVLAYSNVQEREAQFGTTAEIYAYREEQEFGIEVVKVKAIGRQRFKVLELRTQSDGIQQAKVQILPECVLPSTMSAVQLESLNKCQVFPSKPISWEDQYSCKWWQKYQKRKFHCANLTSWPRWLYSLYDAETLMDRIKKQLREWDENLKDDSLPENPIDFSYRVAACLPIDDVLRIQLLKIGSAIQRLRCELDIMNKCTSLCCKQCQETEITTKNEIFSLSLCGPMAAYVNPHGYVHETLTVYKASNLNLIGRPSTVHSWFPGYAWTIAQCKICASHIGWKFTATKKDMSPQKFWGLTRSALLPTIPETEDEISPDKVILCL
T2 sequence (Q8R050 whole entry, looked up): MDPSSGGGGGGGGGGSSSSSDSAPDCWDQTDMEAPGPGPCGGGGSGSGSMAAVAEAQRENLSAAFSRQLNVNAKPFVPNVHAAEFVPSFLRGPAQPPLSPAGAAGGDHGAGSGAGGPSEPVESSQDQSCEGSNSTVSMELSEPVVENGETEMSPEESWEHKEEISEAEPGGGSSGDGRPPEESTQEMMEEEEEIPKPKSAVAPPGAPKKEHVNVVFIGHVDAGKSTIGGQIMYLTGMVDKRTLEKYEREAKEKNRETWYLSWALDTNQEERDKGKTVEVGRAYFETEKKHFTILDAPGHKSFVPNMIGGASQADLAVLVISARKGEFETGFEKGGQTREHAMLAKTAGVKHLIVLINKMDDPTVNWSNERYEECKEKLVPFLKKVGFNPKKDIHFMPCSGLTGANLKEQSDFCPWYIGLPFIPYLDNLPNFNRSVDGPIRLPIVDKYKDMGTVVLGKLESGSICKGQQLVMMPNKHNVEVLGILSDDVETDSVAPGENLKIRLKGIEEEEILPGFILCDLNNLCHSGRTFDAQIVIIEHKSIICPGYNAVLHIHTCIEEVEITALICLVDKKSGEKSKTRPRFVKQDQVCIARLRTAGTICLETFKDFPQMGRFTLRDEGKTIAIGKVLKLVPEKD

[5] = molecular target: T2, Protein cereblon/Eukaryotic peptide chain release factor GTP-binding subunit ERF3A (Mus musculus); assay: PROTAC activity at CRBN/GSPT1 in mouse A9 cells harboring pCDH-BSD-M6/pIRES-GFluc assessed as increase in translational readthrough activity at 0.8 to 20 uM incubated for 48 hrs by Western blot analysis; type: cell-based; conditions: dose 0.8-20 µM
[6] = molecular target: T2, Protein cereblon/Eukaryotic peptide chain release factor GTP-binding subunit ERF3A (Mus musculus); assay: PROTAC activity at CRBN/GSPT1 in mouse A9 cells harboring pCDH-BSD-M6/pIRES-GFluc assessed as GSPT1 degradation at 0.8 to 20 uM incubated for 48 hrs by Western blot analysis; type: cell-based; conditions: dose 0.8-20 µM
A9 = assay: Effect on eRF1 expression in mouse A9 cells harboring pCDH-BSD-M6/pIRES-GFluc at 0.8 to 20 uM incubated for 48 hrs by Western blot analysis; type: functional, cell-based; conditions: dose 0.8-20 µM
NB-4 = assay: Antiproliferative activity against human NB4 cells incubated for 3 days by CCK8 assay; type: functional, cell-based; conditions: for IC50: NB-4, 72 h
HL-60 = assay: Antiproliferative activity against human HL-60 cells incubated for 3 days by CCK8 assay; type: functional, cell-based; conditions: for IC50: HL-60, 72 h
THP-1 = assay: Antiproliferative activity against human THP-1 cells incubated for 3 days by CCK8 assay; type: functional, cell-based; conditions: for IC50: THP-1, 72 h
SU-DHL-1 = assay: Antiproliferative activity against human SU-DHL-1 cells incubated for 3 days by CCK8 assay; type: functional, cell-based; conditions: SU-DHL-1, 72 h
Daudi = assay: Antiproliferative activity against human Daudi cells incubated for 3 days by CCK8 assay; type: functional, cell-based; conditions: 72 h
[7] = molecular target: Protein cereblon/Eukaryotic peptide chain release factor GTP-binding subunit ERF3A (Homo sapiens, UniProt Q96SW2+P15170); assay: PROTAC activity at CRBN/GSPT1 in human MOLM-13 cells assessed as GSPT1 degradation at 100 nM incubated for 6 hrs by Western blot analysis; type: cell-based
Sequence of Protein cereblon/Eukaryotic peptide chain release factor GTP-binding subunit ERF3A (P15170 whole entry, looked up): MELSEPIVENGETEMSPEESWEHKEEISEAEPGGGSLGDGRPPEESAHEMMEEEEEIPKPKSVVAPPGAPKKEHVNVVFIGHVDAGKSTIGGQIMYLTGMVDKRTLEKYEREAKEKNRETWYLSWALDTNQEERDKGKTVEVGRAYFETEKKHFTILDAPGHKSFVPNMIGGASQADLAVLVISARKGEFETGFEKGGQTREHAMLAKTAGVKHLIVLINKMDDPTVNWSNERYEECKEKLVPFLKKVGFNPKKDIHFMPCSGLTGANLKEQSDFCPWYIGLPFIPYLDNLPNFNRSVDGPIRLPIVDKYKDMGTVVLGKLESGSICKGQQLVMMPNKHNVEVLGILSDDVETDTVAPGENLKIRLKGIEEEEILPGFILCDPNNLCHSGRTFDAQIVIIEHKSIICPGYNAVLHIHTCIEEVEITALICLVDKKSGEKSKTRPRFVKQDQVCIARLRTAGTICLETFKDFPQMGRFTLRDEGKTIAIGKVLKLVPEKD
Sequence of Protein cereblon/Eukaryotic peptide chain release factor GTP-binding subunit ERF3A (Q96SW2 whole entry, looked up): as the sequence (Q96SW2 whole entry, looked up, other chains not shown) above

[8] = molecular target: T1, Protein cereblon/Bromodomain-containing protein 4; assay: PROTAC activity at CRBN/BRD4 in human MOLM-13 cells assessed as BRD4 degradation at 100 nM incubated for 6 hrs by Western blot analysis; type: cell-based
[9] = Toxicity in IL2Rg-null NSG mouse xenografted with human MOLM-13 cells expressing GFP-Fluc assessed as hemolysis measured after 48 hrs
[10] = Toxicity in IL2Rg-null NSG mouse xenografted with human MOLM-13 cells expressing GFP-Fluc assessed as animal death measured after 48 hrs

O=C1CCC(N2Cc3cc(CNC(=O)C(F)(F)c4ccc(Cl)cc4)ccc3C2=O)C(=O)N1 (centres undefined)
IC50 (MOLM-13 [1]): 181 nM | IC50 (OCI-AML-3; Homo sapiens, OCI-AML-3, 72 h): > 10000 nM | IC50 (Raji): > 10000 nM | IC50 (KARPAS-299; Homo sapiens, KARPAS-299, 72 h): > 10000 nM | Activity [2]: Active

Cc1sc2c(c1C)C(c1ccc(Cl)cc1)=N[C@@H](CC(=O)N1CC(N3CCN(c4ccc5c(c4)C(=O)N(C4CCC(=O)NC4=O)C5=O)CC3)C1)c1nnc(C)n1-2 (some centres undefined)
IC50 (MOLM-13 [1]): 74.2 nM | viability at 0.1 µM (MOLM-13 [3]): 9.49%

Cc1sc2c(c1C)C(c1ccc(Cl)cc1)=N[C@@H](CC(=O)N1CCC(N3CCN(c4cccc5c4C(=O)N(C4CCC(=O)NC4=O)C5=O)CC3)CC1)c1nnc(C)n1-2 (some centres undefined)
viability at 0.1 µM (MOLM-13 [3]): 72%

Cc1sc2c(c1C)C(c1ccc(Cl)cc1)=N[C@@H](CC(=O)N1CCC(N3CCN(c4ccc5c(c4)C(=O)N(C4CCC(=O)NC4=O)C5=O)CC3)CC1)c1nnc(C)n1-2 (some centres undefined)
IC50 (MOLM-13 [1]): 25.4 nM | viability at 0.1 µM (MOLM-13 [3]): 7.55%

Cc1sc2c(c1C)C(c1ccc(Cl)cc1)=N[C@@H](CC(=O)N1CCN(C3CCN(c4cccc5c4C(=O)N(C4CCC(=O)NC4=O)C5=O)CC3)CC1)c1nnc(C)n1-2 (some centres undefined)
IC50 (MOLM-13 [1]): 37.2 nM | viability at 0.1 µM (MOLM-13 [3]): 19.3% | Activity [2]: Active

Cc1sc2c(c1C)C(c1ccc(Cl)cc1)=N[C@@H](CC(=O)N1CC(CN3CCN(c4cccc5c4C(=O)N(C4CCC(=O)NC4=O)C5=O)CC3)C1)c1nnc(C)n1-2 (some centres undefined)
viability at 0.1 µM (MOLM-13 [3]): 110%

Cc1sc2c(c1C)C(c1ccc(Cl)cc1)=N[C@@H](CC(=O)NCCCCNc1cccc3c1C(=O)N(C1CCC(=O)NC1=O)C3=O)c1nnc(C)n1-2 (some centres undefined)
IC50 (MOLM-13 [1]): 422 nM | IC50 (OCI-AML-3; Homo sapiens, OCI-AML-3, 72 h): 1210 nM | IC50 (Raji): 936 nM | IC50 (KARPAS-299; Homo sapiens, KARPAS-299, 72 h): 7720 nM

Cc1sc2c(c1C)C(c1ccc(Cl)cc1)=N[C@@H](CC(=O)NCCNc1cccc3c1C(=O)N(C1CCC(=O)NC1=O)C3=O)c1nnc(C)n1-2 (some centres undefined)
fold change (FC) [4]: 7 | Activity [5]: Active | Activity [6]: Active | Activity (A9): No effect | IC50 (NB-4): 92.6 nM | Activity (NB-4; time 3.0 day): Active | IC50 (MOLM-13 [1]): 150 nM | Activity (MOLM-13 [1]; time 3.0 day): Active | IC50 (HL-60): 343 nM | Activity (HL-60; time 3.0 day): Active | IC50 (OCI-AML-3; Homo sapiens, OCI-AML-3, 72 h): 325 nM | IC50 (OCI-AML-3; oci-aml-3): 381 nM | Activity (OCI-AML-3; time 3.0 day): Active | IC50 (THP-1): 553 nM | Activity (THP-1; time 3.0 day): Active | IC50 (Raji): 183 nM | IC50 (KARPAS-299; Homo sapiens, KARPAS-299, 72 h): 820 nM | IC50 (KARPAS-299; karpas-299): 913 nM | IC50 (SU-DHL-1): 195 nM | IC50 (Daudi): 266 nM | Activity [2]: Active

Cc1sc2c(c1C)C(c1ccc(Cl)cc1)=N[C@@H](CC(=O)N1CCN(C3CCN(c4ccc5c(c4)C(=O)N(C4CCC(=O)NC4=O)C5=O)CC3)CC1)c1nnc(C)n1-2 (some centres undefined)
IC50 (NB-4): 4.26 nM | IC50 (MOLM-13 [1]): 6.07 nM | IC50 (HL-60): 7.38 nM | IC50 (OCI-AML-3; Homo sapiens, OCI-AML-3, 72 h): 17.3 nM | IC50 (THP-1): 16.4 nM | IC50 (Raji): 13.9 nM | IC50 (KARPAS-299; Homo sapiens, KARPAS-299, 72 h): 20.6 nM | viability at 0.1 µM (MOLM-13 [3]): 6.8% | IC50 (SU-DHL-1): 11.1 nM | IC50 (Daudi): 10.2 nM | Activity [2]: Active | Activity [7]: Active | Activity [8]: Active | Activity [9]: Toxic | Activity [10]: Toxic

Cc1sc2c(c1C)C(c1ccc(Cl)cc1)=N[C@@H](CC(=O)N1CCN(C3CN(c4ccc5c(c4)C(=O)N(C4CCC(=O)NC4=O)C5=O)C3)CC1)c1nnc(C)n1-2 (some centres undefined)
IC50 (MOLM-13 [1]): 18.7 nM | viability at 0.1 µM (MOLM-13 [3]): 7.24% | Activity [2]: Active

Cc1sc2c(c1C)C(c1ccc(Cl)cc1)=N[C@@H](CC(=O)N1CCN(C3CN(c4cccc5c4C(=O)N(C4CCC(=O)NC4=O)C5=O)C3)CC1)c1nnc(C)n1-2 (some centres undefined)
viability at 0.1 µM (MOLM-13 [3]): 66.2%

Cc1sc2c(c1C)C(c1ccc(Cl)cc1)=N[C@@H](CC(=O)N1CCN(CC3CCN(c4cccc5c4C(=O)N(C4CCC(=O)NC4=O)C5=O)CC3)CC1)c1nnc(C)n1-2 (some centres undefined)
IC50 (MOLM-13 [1]): 46.6 nM | viability at 0.1 µM (MOLM-13 [3]): 18% | Activity [2]: Active

Cc1sc2c(c1C)C(c1ccc(Cl)cc1)=N[C@@H](CC(=O)N1CCC(CN3CCN(c4ccc5c(c4)C(=O)N(C4CCC(=O)NC4=O)C5=O)CC3)CC1)c1nnc(C)n1-2 (some centres undefined)
IC50 (MOLM-13 [1]): 61.4 nM | viability at 0.1 µM (MOLM-13 [3]): 15.5%

Cc1sc2c(c1C)C(c1ccc(Cl)cc1)=N[C@@H](CC(=O)N1CCN(CC3CN(c4ccc5c(c4)C(=O)N(C4CCC(=O)NC4=O)C5=O)C3)CC1)c1nnc(C)n1-2 (some centres undefined)
IC50 (NB-4): 6.03 nM | IC50 (MOLM-13 [1]): 13.5 nM | IC50 (HL-60): 19.1 nM | IC50 (OCI-AML-3; Homo sapiens, OCI-AML-3, 72 h): 27.7 nM | IC50 (THP-1): 32 nM | IC50 (Raji): 82.1 nM | IC50 (KARPAS-299; Homo sapiens, KARPAS-299, 72 h): 330 nM | viability at 0.1 µM (MOLM-13 [3]): 8.1% | IC50 (SU-DHL-1): 35 nM | IC50 (Daudi): 178 nM | Activity [2]: Active | Activity [7]: Active | Activity [8]: Active

Cc1sc2c(c1C)C(c1ccc(Cl)cc1)=N[C@@H](CC(=O)N1CCC(CN3CCN(c4cccc5c4C(=O)N(C4CCC(=O)NC4=O)C5=O)CC3)CC1)c1nnc(C)n1-2 (some centres undefined)
viability at 0.1 µM (MOLM-13 [3]): 79.6%

Cc1sc2c(c1C)C(c1ccc(Cl)cc1)=N[C@@H](CC(=O)N1CC(CN3CCN(c4ccc5c(c4)C(=O)N(C4CCC(=O)NC4=O)C5=O)CC3)C1)c1nnc(C)n1-2 (some centres undefined)
IC50 (MOLM-13 [1]): 33.8 nM | viability at 0.1 µM (MOLM-13 [3]): 7.45% | Activity [2]: Active

Cc1sc2c(c1C)C(c1ccc(Cl)cc1)=N[C@@H](CC(=O)N1CC(N3CCN(c4cccc5c4C(=O)N(C4CCC(=O)NC4=O)C5=O)CC3)C1)c1nnc(C)n1-2 (some centres undefined)
viability at 0.1 µM (MOLM-13 [3]): 124%

Cc1sc2c(c1C)C(c1ccc(Cl)cc1)=N[C@@H](CC(=O)N1CCN(CC3CN(c4cccc5c4C(=O)N(C4CCC(=O)NC4=O)C5=O)C3)CC1)c1nnc(C)n1-2 (some centres undefined)
IC50 (NB-4): 19.2 nM | IC50 (MOLM-13 [1]): 14.9 nM | IC50 (HL-60): 63.7 nM | IC50 (OCI-AML-3; Homo sapiens, OCI-AML-3, 72 h): 75.3 nM | IC50 (THP-1): 103 nM | IC50 (Raji): 605 nM | IC50 (KARPAS-299; Homo sapiens, KARPAS-299, 72 h): 3360 nM | viability at 0.1 µM (MOLM-13 [3]): 11.7% | IC50 (SU-DHL-1): 117 nM | IC50 (Daudi): 257 nM | Activity [2]: Active | Activity [7]: Active | Activity [8]: Active
